ChEMBL document CHEMBL2424633, “Evaluation of the Influence of thiosemicarbazone-triazole hybrids on genes implicated in lipid oxidation and accumulation as potential anti-obesity agents” (2013)
The source made the active and inactive calls. The rule behind the calls is not given here.

Experiments:
3T3-L1 [1] = experiment: Upregulation of CPT-1 gene expression in mouse 3T3L1 cells at […] after 4 days by RT-PCR analysis relative to insulin; assay type: functional
3T3-L1 [2] = experiment: Upregulation of PGC-1 gene expression in mouse 3T3L1 cells at […] after 4 days by RT-PCR analysis relative to control; assay type: functional, cell-based
3T3-L1 [3] = experiment: Downregulation of ACC-1 gene expression in mouse 3T3L1 cells at […] after 4 days by RT-PCR analysis relative to insulin; assay type: functional
3T3-L1 [4] = experiment: Upregulation of CPT-1 gene expression in mouse 3T3L1 cells at […] after 4 days by RT-PCR analysis relative to untreated control; assay type: functional, cell-based
3T3-L1 [5] = experiment: Downregulation of ACC-1 gene expression in mouse 3T3L1 cells at […] after 4 days by RT-PCR analysis relative to untreated control; assay type: functional
3T3-L1 [6] = experiment: Downregulation of CPT-1 gene expression in mouse 3T3L1 cells at […] after 4 days by RT-PCR analysis; assay type: functional, cell-based

SMILES	fold change (FC) (3T3-L1 [1])	Activity (3T3-L1 [2])	fold change (FC) (3T3-L1 [3])	Activity (3T3-L1 [4])	fold change (FC) (3T3-L1 [5])	Activity (3T3-L1 [6])	Activity (3T3-L1 [5])	Activity (3T3-L1 [1])
CC(C)CNC(=S)N/N=C\c1ccc(OCc2cn(Cc3ccccc3)nn2)cc1	5	Active	2	Active	2	–	–	–
OCCNC(=S)N/N=C\c1ccc(OCc2cn(Cc3ccccc3)nn2)cc1	–	inactive	–	–	–	Active	inactive	–
CCCCCCCCNC(=S)N/N=C\c1ccc(OCc2cn(Cc3ccccc3)nn2)cc1	–	Active	4	–	4	Active	–	–
S=C(NCCc1ccccc1)N/N=C\c1ccc(OCc2cn(Cc3ccccc3)nn2)cc1	–	Active	2	Active	2	–	–	Active
OCCCCCCNC(=S)N/N=C\c1ccc(OCc2cn(Cc3ccccc3)nn2)cc1	–	Active	–	Active	–	–	Active	Active
CN(C)CCNC(=S)N/N=C\c1ccc(OCc2cn(Cc3ccccc3)nn2)cc1	3	inactive	2	Active	2	–	–	–
CCCCCNC(=S)N/N=C\c1ccc(OCc2cn(Cc3ccccc3)nn2)cc1	2	Active	–	Active	–	–	Active	–
